Measured values reported in patent publication US7786299B2, “Methods for treating diseases or conditions using dihydropteridinone compounds” (Boehringer Ingelheim Pharma GmbH & Co. KG, priority 2003, dated 2010).

Key:
H460-VINC = assay: Cytotoxicity on H460-VINC cells (Table 1; method not given); type: cell-based; settings: H460-VINC of Table 1; unit inferred
HeLaS3 cells = assay: Measurement of cytotoxicity on cultivated human tumour cells (AlamarBlue); type: cell-based; settings: HeLa in Table 1; unit inferred
Method: The activity of the compounds according to the invention was determined in the cytotoxicity test on cultivated human tumour cells and/or in a FACS analysis, for example on HeLaS3 cells.
Measurement of Cytotoxicity on Cultivated Human Tumour Cells
To measure the cytotoxicity on cultivated human tumour cells, cells of the cervical cancer tumour cell line HeLaS3 (obtained from American Type Culture Collection (ATCC)) in Ham's F12 Medium (Life Technologies) and 10% foetal calf serum (Life Technologies) were cultivated and harvested in the logarithmic growth phase. Then the HeLaS3 cells were placed in 96-well plates (Costar) at a density of 1000 cells per well and incubated overnight in an incubator (at 37° C. and 5% CO2), while on each plate 6 wells were filled only with medium (3 wells as a control of the medium, 3 wells for incubation with reduced AlamarBlue). The active substances were added to the cells in various concentrations (dissolved in DMSO; final concentration: 1%) (in each case as a triple measurement). After 72 hours' incubation, 20 μl of AlamarBlue (AccuMed International) were added to each well, and the cells were incubated for a further 7 hours. As a control, 20 μl of reduced Alamar Blue (AlamarBlue reagent which had been autoclaved for 30 min) were added to 3 wells. After 7 h incubation the colour change of the AlamarBlue reagent in the individual wells was determined in a Perkin Elmer fluorescence spectrophotometer (excitation 530 nm, emission 590 nm, slits 15, integrate time 0.1). The amount of AlamarBlue reagent reacted represents the metabolic activity of the cells. The relative cell activity was calculated as a percentage of the control (HeLa S3 cells without inhibitor) and the active substance concentration which inhibits the cell activity by 50% (IC^50) was obtained. The values were calculated from the average of three individual measurements, correcting for the control value (medium control).

Row | Structure (SMILES) | IC50 (H460-VINC) [nM] | IC50 (HeLaS3 cells) [nM]
1 | CC[C@@H]1C(=O)N(C)c2cnc(Nc3ccc(C(=O)NC(C)(C)CN(C)C)cc3OC)nc2N1C1CCCC1 [Example 177] | 82 | 
2 | CC[C@@H]1C(=O)N(C)c2cnc(Nc3ccc(C(=O)NCCCN(C)C)cc3OC)nc2N1CCC(C)C [Example 164] | 975 | 30
3 | CCC1C(=O)N(C)c2cnc(Nc3ccc(C(=O)NC4CC5CCC(C4)N5C)cc3)nc2N1C1CCCC1 (stereo not drawn) [Example 47] |  | 28
4 | CCN1CCC(NC(=O)c2ccc(Nc3ncc4c(n3)N(CC(C)(C)C)C(C)C(=O)N4C)c(OC)c2)CC1 (stereo not drawn) [Example 6] | 822 | 53
5 | CCC1C(=O)N(C)c2cnc(Nc3ccc(C(=O)NC4CCC(N5CCOCC5)CC4)cc3OC)nc2N1C1CCCC1 (stereo not drawn) [Example 131] | 101 | 23
6 | CC[C@@H]1C(=O)N(C)c2cnc(Nc3ccc(C(=O)NCCCN(CC)CC)cc3OC)nc2N1CCC(C)C [Example 165] | 668 | 46
7 | COc1cc(C(=O)NC2CCC(N3CCN(CC4CC4)CC3)CC2)ccc1Nc1ncc2c(n1)N(C(C)C)C(C)C(=O)N2C (stereo not drawn) [Example 112] | 345 | 75
8 | COc1cc(C(=O)NC2CCC(N(C)C)CC2)ccc1Nc1ncc2c(n1)N(C1CCCC1)C(C)C(=O)N2C (stereo not drawn) [Example 13] | 1320 | 26
9 | CC[C@@H]1C(=O)N(C)c2cnc(Nc3ccc(C(=O)NC(C)(C)CN(C)C)cc3OC)nc2N1CCC(C)C [Example 90] | 137 | 32
10 | CC1C(=O)N(C)c2cnc(Nc3ccc(C(=O)NC4CCN(C)CC4)cc3)nc2N1c1ccccc1 (stereo not drawn) [Example 48] | ≥ 3000 | 83
11 | CC[C@@H]1C(=O)N(C)c2cnc(Nc3ccc(C(=O)NCCCN4CCOCC4)cc3)nc2N1CCC(C)C [Example 154] |  | 97
12 | COc1cc(C(=O)NCC(C)(C)CN(C)C)ccc1Nc1ncc2c(n1)N(C1CCCC1)C(C)C(=O)N2C (stereo not drawn) [Example 60] | 189 | 41
13 | C[C@@H]1C(=O)N(C)c2cnc(Nc3ccc(C(=O)NC4CC5CCC(C4)N5C)cc3)nc2N1C1CCCCC1 (stereo partly drawn) [Example 92] |  | 43
14 | CCC1C(=O)N(C)c2cnc(Nc3ccc(C(=O)NC4CCC(N5CCOCC5)CC4)cc3OC)nc2N1C(C)C (stereo not drawn) [Example 28] | 160 | 18
15 | COc1cc(C(=O)NC2CCC(N3CCCCC3)CC2)ccc1Nc1ncc2c(n1)N(C1CCCC1)C(C)C(=O)N2C (stereo not drawn) [Example 16] | 483 | 17
16 | COc1cc(C(=O)NC2CC(C)(C)N(C)C(C)(C)C2)ccc1Nc1ncc2c(n1)N(C(C)C)[C@H](C)C(=O)N2C [Example 32] | ≥ 3000 | 49
17 | COc1cc(C(=O)NC(C)(C)CN2CCCC2)ccc1Nc1ncc2c(n1)N(C1CCCCC1)[C@H](C)C(=O)N2C [Example 87] | 66 | 29
18 | COc1cc(C(=O)NCC(C)(C)CN(C)C)ccc1Nc1ncc2c(n1)N(CCC(C)C)C(C)(C)C(=O)N2C [Example 53] | 245 | 76
19 | COc1cc(C(=O)NC2CC(C)(C)N(C)C(C)(C)C2)ccc1Nc1ncc2c(n1)N(CCC(C)C)C(C)C(=O)N2C (stereo not drawn) [Example 1] | 604 | 46
20 | COc1cc(C(=O)NC2CCN(C)CC2)ccc1Nc1ncc2c(n1)N(CCC(C)C)C(C)(C)C(=O)N2C [Example 162] | 903 | 71

Row | Structure (SMILES) | IC50 (H460-VINC) [nM] | IC50 (HeLaS3 cells) [nM]
21 | CCN1CCC(NC(=O)c2ccc(Nc3ncc4c(n3)N(C3CCCCC3)C(C)C(=O)N4C)c(OC)c2)CC1 (stereo not drawn) [Example 119] | 438 | 8
22 | CCC1C(=O)N(C)c2cnc(Nc3ccc(C(=O)NCCN(CC)CC)cc3OC)nc2N1CCC(C)C (stereo not drawn) [Example 149] |  | 85
23 | CCN1CCC(NC(=O)c2ccc(Nc3ncc4c(n3)N(C3CCCC3)C(C)C(=O)N4C)cc2)CC1 (stereo not drawn) [Example 18] | 1760 | 40
24 | CCN1CC[C@@H](NC(=O)c2ccc(Nc3ncc4c(n3)N(CCC(C)C)[C@H](C)C(=O)N4C)cc2)C1 [Example 39] |  | 75
25 | CC[C@@H]1C(=O)N(C)c2cnc(Nc3ccc(C(=O)NCCN(C)C)cc3OC)nc2N1CCC(C)C [Example 159] |  | 29
26 | COc1cc(C(=O)NC2CCC(N3CCCC3)CC2)ccc1Nc1ncc2c(n1)N(CCC(C)C)[C@H](C)C(=O)N2C (stereo partly drawn) [Example 34] |  | 55
27 | CC[C@@H]1C(=O)N(C)c2cnc(Nc3ccc(C(=O)NCCN(C(C)C)C(C)C)cc3OC)nc2N1CCC(C)C [Example 160] | 728 | 37
28 | COc1cc(C(=O)NCC(C)(C)CN(C)C)ccc1Nc1ncc2c(n1)N(C1CCCCC1)[C@H](C)C(=O)N2C [Example 86] | 24 | 38
29 | CC1C(=O)N(C)c2cnc(Nc3ccc(C(=O)NC4CC(C)(C)N(C)C(C)(C)C4)cc3)nc2N1CC(C)(C)C (stereo not drawn) [Example 8] |  | 63
30 | CCC1C(=O)N(C)c2cnc(Nc3ccc(C(=O)NC4CN5CCC4CC5)cc3OC)nc2N1CCC(C)C (stereo not drawn) [Example 163] |  | 71
31 | CCN(CC)CCCNC(=O)c1ccc(Nc2ncc3c(n2)N(C2CCCC2)[C@H](C)C(=O)N3C)c(OC)c1 [Example 76] |  | 68
32 | COc1cc(C(=O)NC2CCC(N3CCCCC3)CC2)ccc1Nc1ncc2c(n1)N(C1CCCC1)C(C)C(=O)N2C (stereo not drawn) [Example 25] |  | 38
33 | COc1cc(C(=O)NC2CCN(Cc3ccccc3)CC2)ccc1Nc1ncc2c(n1)N(C1CCOCC1)C(C)C(=O)N2C (stereo not drawn) [Example 181] | 754 | 
34 | Cc1cc(C(=O)NC2CC3CCC(C2)N3C)ccc1Nc1ncc2c(n1)N(C1CCCCC1)[C@H](C)C(=O)N2C (stereo partly drawn) [Example 95] |  | 47
35 | C[C@@H]1C(=O)N(C)c2cnc(Nc3ccc(C(=O)NC4CCN(C)CC4)cc3)nc2N1C1CCCC1 [Example 79] |  | 43
36 | COc1cc(C(=O)NC2CCC(N3CCCC3)CC2)ccc1Nc1ncc2c(n1)N(C1CCCC1)[C@H](C)C(=O)N2C (stereo partly drawn) [Example 36] |  | 21
37 | CC[C@@H]1C(=O)N(C)c2cnc(Nc3ccc(C(=O)NCCCN4CCCC4)cc3OC)nc2N1CCC(C)C [Example 157] |  | 51
38 | CCN1CCC(NC(=O)c2ccc(Nc3ncc4c(n3)N(CCC(C)C)C(C)C(=O)N4C)cc2)CC1 (stereo not drawn) [Example 4] |  | 98
39 | CC[C@@H]1C(=O)N(C)c2cnc(Nc3ccc(C(=O)NCCN(CC)CC)cc3)nc2N1C(C)C [Example 73] |  | 91
40 | CC[C@@H]1C(=O)N(C)c2cnc(Nc3ccc(C(=O)NCCN(CC)CC)cc3OC)nc2N1C(C)C [Example 74] |  | 43

Row | Structure (SMILES) | IC50 (H460-VINC) [nM] | IC50 (HeLaS3 cells) [nM]
41 | CC[C@@H]1C(=O)N(C)c2cnc(Nc3ccc(C(=O)NCCCN4CCOCC4)cc3)nc2N1CCC(C)C [Example 155] |  | 79
42 | CN1CCC(NC(=O)c2ccc(Nc3ncc4c(n3)N(C3CCCC3)[C@H](C3CC3)C(=O)N4C)cc2)CC1 [Example 93] |  | 60
43 | COc1cc(C(=O)N[C@H]2CC[C@H](N3CCCCC3)CC2)ccc1Nc1ncc2c(n1)N(CCC(C)C)[C@H](C)C(=O)N2C [Example 29] |  | 49
44 | CC[C@@H]1C(=O)N(C)c2cnc(Nc3ccc(C(=O)NCCCN4CCOCC4)cc3OC)nc2N1CCC(C)C [Example 152] |  | 81
45 | CCN(CC)CCNC(=O)c1ccc(Nc2ncc3c(n2)N(c2ccccc2)C(C)C(=O)N3C)c(OC)c1 (stereo not drawn) [Example 59] |  | 95
46 | CC1C(=O)N(C)c2cnc(Nc3ccc(C(=O)NCCN4CCCCC4)cc3)nc2N1C1CCCC1 (stereo not drawn) [Example 70] |  | 92
47 | COc1cc(C(=O)NC2CCC(N3CCCC3)CC2)ccc1Nc1ncc2c(n1)N(C1CCCC1)C(C)C(=O)N2C (stereo not drawn) [Example 15] |  | 20
48 | CC(C)CCN1c2nc(Nc3ccc(C(=O)NC4CC(C)(C)N(C)C(C)(C)C4)cc3)ncc2N(C)C(=O)C1C (stereo not drawn) [Example 3] |  | 61
49 | COc1cc(C(=O)NCCN(C(C)C)C(C)C)ccc1Nc1ncc2c(n1)N(CCC(C)C)C(C)(C)C(=O)N2C [Example 161] |  | 81
50 | COc1cc(C(=O)NC(C)(C)CN(C)C)ccc1Nc1ncc2c(n1)N(C1CCCC1)[C@H](C)C(=O)N2C [Example 175] | 296 | 
51 | CCC1C(=O)N(C)c2cnc(Nc3ccc(C(=O)NCCCN4CCOCC4)cc3OC)nc2N1CCC(C)C (stereo not drawn) [Example 151] |  | 43
52 | CCC1C(=O)N(C)c2cnc(Nc3ccc(C(=O)NC4CCN(Cc5ccccc5)CC4)cc3OC)nc2N1C1CCCCC1 (stereo not drawn) [Example 180] | 147 | 
53 | CCC1C(=O)N(C)c2cnc(Nc3ccc(C(=O)NCCN4CCCCC4)cc3)nc2N1CCC(C)C (stereo not drawn) [Example 150] |  | 43
54 | CCC1C(=O)N(C)c2cnc(Nc3ccc(C(=O)NCCN4CCCCC4)cc3OC)nc2N1CCC(C)C (stereo not drawn) [Example 148] |  | 87
55 | CC[C@@H]1C(=O)N(C)c2cnc(Nc3ccc(C(=O)NC(C)(C)CN(C)C)cc3OC)nc2N1C(C)C [Example 176] | 301 | 
56 | CC[C@@H]1C(=O)N(C)c2cnc(Nc3ccc(C(=O)NCCN4CCCCC4)cc3OC)nc2N1C(C)C [Example 72] |  | 50
57 | COc1cc(C(=O)N[C@H]2CC[C@H](N3CCCC3)CC2)ccc1Nc1ncc2c(n1)N(CCC(C)C)[C@H](C)C(=O)N2C [Example 35] |  | 88
58 | CC1C(=O)N(C)c2cnc(Nc3ccc(C(=O)NC4CCN(Cc5ccccc5)CC4)cc3)nc2N1CC(C)(C)C (stereo not drawn) [Example 10] |  | 91
